Test results taken from patent publication US8961930B2, “Isatin derivatives for use as in vivo imaging agents” (Imperial Innovations Limited, priority 2008, dated 2015).

Experiments:
[1] = tested on: PEO4 xenograft; assay: In vivo [^18F]11 biodistribution and PET imaging, PEO4 xenograft; set-up: species or system mice; conditions: for 60 min biodistribution, Bone / 60 min biodistribution, Kidney / 60 min biodistribution, L. Intestine / 60 min biodistribution, Liver / 60 min biodistribution, Lung / 60 min biodistribution, Muscle / 60 min biodistribution, S. Intestine / 60 min biodistribution, Spleen / 60 min biodistribution, Tumour: PEO4
Source text: In vivo tumour models were established by subcutaneous injection of PEO1/4 (10×10^6 cells, with v/v matrigel, BD Biosciences, Oxford, UK), RIF-1 (5×10^5 cells) and LNM35 (1×10^6 cells) on the back of 6-8 weeks old female nu/nu-BALB/c or male C3H/hej mice (Harlan, Bicester, Oxfordshire, UK). Tumour growth was monitored every two days using electronic callipers, and tumour volume estimated using (π/6)×L×W×D (L=length, W=width and D=depth). All animal work was done by licensed investigators in accordance with the United Kingdom's “Guidance on the Operation of Animals (Scientific Procedures) Act 1986” (HMSO, London, United Kingdom, 1990) and in full compliance with government regulations and guidelines on the welfare of animals in experimental neoplasia.
For biodistribution studies, tumour-bearing mice were treated with 10 mg/kg cisplatin or vehicle for 24 h, anesthetized with isofluorane/O2/N2O and injected i.v. in the lateral tail vein with ˜100 μCi [^18F]11 for the indicated time. The different tissues were removed, weighted and placed in counting tubes for immediate Fluorine-18 radioactivity counting.
Tumour-bearing mice treated with Cisplatin (10 mg/kg for 24 h) or vehicle were scanned on a dedicated small animal PET scanner (quad-HIDAC; Oxford Positron Systems, Weston-on-the-Green, United Kingdom). Anesthetized animals were placed within a thermostatically controlled bed and positioned prone within the scanner. The bed was calibrated to provide a mouse rectal temperature of ˜37° C. A bolus injection of [^18F]11 (˜100 μCi) was given intravenously (i.v.) via the tail vein cannula and scanning commenced. Dynamic emission scans were acquired in list-mode format over 60 minutes. The acquired data were then sorted into 0.5-mm sinogram bins and 19 time frames (0.5×0.5×0.5 mm voxels; 4×15, 4×60, and 11×300 seconds) for image reconstruction, which was done by filtered back projection using a two-dimensional Hamming filter (cutoff 0.6). The image data-sets obtained were transferred to a SUN workstation (Ultra 10; SUN Microsystems, Santa Clara, Calif.) and visualized using the Analyze software (version 6.0; Biomedical Imaging Resource, Mayo Clinic, Rochester, Minn.). Cumulative images of the dynamic data composed of 0 to 1 minute after injection and 30 to 60 minutes after injection were used for visualization of radiotracer uptake and to define the regions of interest (ROI). The count densities were averaged for each ROI at each of the 19 time points to obtain a time versus radioactivity curve (TAC) for the ROIs. Tumour TAC was normalized to that of heart at each of the time points to obtain the normalized uptake value (NUV). The [^18F]9 data from […] were used as internal input function for normalizing tumour data. […] FRT is a useful variable in that it indicates the proportion of radiotracer delivered to the tumour that is retained. It therefore normalizes tumor [^18F]9 uptake to delivery.

[2] = tested on: PEO1 cells; assay: In vitro [^18F]11 uptake in PEO1 cells; type: cell-based, human; conditions: 50 μg/mL CDDP, 60 min uptake
Source text: The human ovarian carcinoma cell lines PEO1/4 were established and characterised as described in Wolf C. R. et al.^22 and Langdon S. P. et al^23. Briefly, PEO1/4 cells were derived from the malignant ascites of a patient with a recurrent mucinous ovarian adenocarcinoma, before (PEO1) and after (PEO4) the onset of a clinical resistance to cisplatin chemotherapy in this patient. The radiation-induced murine fibrosarcoma (RIF-1) tumour cell line was originally characterised by Twentyman P. R. et al.^20. The LNM35 tumour cells are a highly lymphogenous metastatic subline of the human large pulmonary carcinoma NCI-H460 cell line, as described in Kozaki K. et al.^24. […]
Cells were plated in triplicate in 12-well plates 2 or 3 days prior to the experiments and treated with the antineoplastic platinum-derived drug Cisplatin, 5-FU, the protein synthesis inhibitor cycloheximide (CHX) or the topoisomerase inhibitor etoposide (VP-16) (Sigma, UK) or corresponding vehicle at the indicated concentration and time. […] 260 μL of each sample were transferred in counting tubes and Fluorine-18 radioactivity was immediately determined using a Packard Cobra II gamma counter (Perkin Elmer, UK). […] BCA Protein assay (Pierce, UK) was performed for all samples and datas are normalized and expressed as CCPMA or RLU (Relative Light Unit)/mg of protein.

O=C1C(=O)N(Cc2cn(CC[18F])nn2)c2ccc(S(=O)(=O)N3CCC[C@H]3COc3ccc(F)cc3F)cc21 [[^18F]11, (S)-1-((1-(2-Fluoroethyl)-1H-[1,2,3]-triazol-4-yl)methyl)-5-(2(2,4-difluorophenoxymethyl)-pyrrolidine-1-sulfonyl)isatin]
60 min biodistribution, Bone ([1]; CDDP treated): 1.44 ± 0.66 | 60 min biodistribution, Bone ([1]; Control): 1.12 ± 0.47 | uptake in the tumour of CDDP treated vs control mice ([1]; CDDP-resistant PEO4 tumours, 60 min): not showing differences in uptake between control and treated | PET image: uptake in the tumour ([1]; CDDP-treated mouse, PEO4 xenograft, 30-60 min): significant uptake | 60 min biodistribution, Kidney ([1]; CDDP treated): 7.96 ± 3.34 | 60 min biodistribution, Kidney ([1]; Control): 8.04 ± 4.24 | 60 min biodistribution, L. Intestine ([1]; CDDP treated): 2.89 ± 0.93 | 60 min biodistribution, L. Intestine ([1]; Control): 2.40 ± 1.88 | 60 min biodistribution, Liver ([1]; CDDP treated): 8.22 ± 2.89 | 60 min biodistribution, Liver ([1]; Control): 6.71 ± 1.56 | 60 min biodistribution, Lung ([1]; CDDP treated): 4.73 ± 1.78 | 60 min biodistribution, Lung ([1]; Control): 3.31 ± 0.83 | 60 min biodistribution, Muscle ([1]; CDDP treated): 1.13 ± 0.22 | 60 min biodistribution, Muscle ([1]; Control): 0.88 ± 0.36 | 60 min biodistribution, S. Intestine ([1]; CDDP treated): 10.43 ± 14.36 | 60 min biodistribution, S. Intestine ([1]; Control): 10.37 ± 10.58 | 60 min biodistribution, Spleen ([1]; CDDP treated): 1.81 ± 0.80 | 60 min biodistribution, Spleen ([1]; Control): 1.26 ± 0.45 | 60 min biodistribution, Tumour ([1]; CDDP treated): 2.15 ± 0.79 | 60 min biodistribution, Tumour ([1]; Control): 1.66 ± 0.41 | [^18F]11 uptake in drug-treated cells compared to control [2]: significantly increased
